Laboratory results taken from patent publication US9403820B2, “Kinase inhibitor polymorphs” (INTELLIKINE LLC, priority 2011, dated 2016).
Structures can show the parent of a compound that is named as a salt.

Experiments:
Assay type in all cases: physicochemical
[1] = Solid form stability on vacuum drying (XRPD)
Protocol: HCl Pattern 1: Formula I free base (ca. 500 mg) was suspended in nitromethane (50 volumes, 25 mL) with stirring. HCl (1M in THF; 1.2 equivalents; 1.65 mL) was added. The suspension was subjected to heating/cooling cycles between RT and 50° C., 4 hours at each condition for one week. […] The solid was isolated by vacuum filtration and dried under vacuum at RT for 16 hours.

[2] = VH-XRPD (variable humidity XRPD) form stability
From the text: Variable humidity XRPD analysis was undertaken in order to determine if two hydrated species were present. […] On increasing the humidity, the material started to re-hydrate from 13% RH, and reverted completely back to HCl Pattern 2 by 45% RH. […] Only one XRPD pattern was observed upon dehydration and it is not possible to conclude whether this is a totally anhydrous or partially hydrated form.

[3] = Stability at 40° C./75% RH (XRPD after storage); conditions: 3 weeks storage, by XRPD
[4] = GVS (gravimetric vapor sorption) moisture sorption isotherm
Protocol: Sorption isotherms were obtained using a SMS DVS Intrinsic moisture sorption analyser, controlled by DVS Intrinsic Control software v1.0.0.30. The sample temperature was maintained at 25° C. by the instrument controls. The humidity was controlled by mixing streams of dry and wet nitrogen, with a total flow rate of 200 mL.min−1 The relative humidity was measured by a calibrated Rotronic probe (dynamic range of 1.0-100% RH), located near the sample. The weight change (mass relaxation) of the sample as a function of % RH was constantly monitored by the microbalance (accuracy±0.005 mg). Approximately 5-20 mg of sample was placed in a tared mesh stainless steel basket under ambient conditions. The sample was loaded and unloaded at 40% RH and 25° C. (typical room conditions). A moisture sorption isotherm was performed as outlined below (2 scans giving 1 complete cycle). The standard isotherm was performed at 25° C. at 10% RH intervals over a 0-90% RH range. Data analysis was undertaken in Microsoft Excel using DVS Analysis Suite v6.0.0.7.

Form stability on drying under vacuum at RT for 16 hours (XRPD) [1] | VH-XRPD: RH to which the form is stable ([2]; then starts to change to HCl Pattern 3) | GVS: RH to which the form appeared stable ([4]; dehydration observed below, rehydration by 40%) | GVS water content at the end of the experiment ([4]; end of GVS experiment) | GVS water content at the end of the experiment, equivalents ([4]; end of GVS experiment) | SMILES | VH-XRPD: RH below which the material starts to change ([2]; full conversion to HCl Pattern 3 at 0.5% RH) | Stability at 40° C./75% RH [3] | GVS reversible uptake ([4]; between 40-90% RH, 25° C.)
partially reverted to the free base |  |  |  |  | Nc1nc2cc(-c3ccc4ncc(C(=O)N5CCOCC5)n4c3)ccc2o1 [HCl Pattern 1] |  |  | 
 | ≥ 14 % RH | ≥ 30 % RH | 10.6 wt % | 3.0 eqs | Nc1nc2cc(-c3ccc4ncc(C(=O)N5CCOCC5)n4c3)ccc2o1 [HCl Pattern 2] | The material starts to change below 25% RH, with full conversion to HCl | No significant changes observed by XRPD after 3 weeks storage | Reversible uptake of ca. 6 wt % between 40-90% RH.
